Experimental data taken from patent US20260285853A1, “COMPOUNDS AND METHODS FOR MODULATING SPLICING” (REMIX THERAPEUTICS INC., priority 2023, published 2026).

Assays:
Format in all cases: cell-based
[1] = system: SH-SY5Y (human neuroblastoma) cells; experiment: Cell viability, Cell Titer Glo 2.0 assay; conditions: read-out: Viability SHSY5Y.3 GI50
Summary of the method: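 Toxicity screen in SH-SY5Y cells. Compounds were serially diluted in DMSO and then in medium, giving 0.1% DMSO final. Viability was read with CellTiter-Glo 2.0 after 72 h at 37 °C, 5% CO2, against medium-only blank wells.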

[2] = system: MYB mRNA; experiment: Splicing RT-qPCR assay (THP), Table 2A; conditions: Table 2A (THP); for AC50: AJ mRNA increase, read-out: MYB AJ (increase in alternative junction mRNA, AC50); for IC50: CJ mRNA decrease, read-out: MYB CJ (decrease in canonical junction mRNA, IC50)
[3] = system: HTT mRNA; experiment: Gene panel canonical junction qPCR assay, decrease in CJ mRNA, Table 3; conditions: decrease in canonical junction (CJ) mRNA, gene panel qPCR, Table 3
Summary of the method: (§1)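 A673 (DMEM, 10% FBS, 15,000 cells/well) or K562 (IMDM, 10% FBS) cells treated 24 h at 37 °C with 11-point 3-fold dilutions, top 10 uM, DMSO ≤0.25%. Canonical exon-exon junction mRNA measured by RT-qPCR, normalized to GAPDH, GUSB or PPIA and DMSO (ΔΔCt); IC50 from 4-parameter logistic fit.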

[4] = system: MYB mRNA; experiment: as above; conditions: decrease in canonical junction (CJ) mRNA, gene panel qPCR, Table 3
Summary of the method: as §1

[5] = system: SMN2 mRNA; experiment: as above; conditions: decrease in canonical junction (CJ) mRNA, gene panel qPCR, Table 3
Summary of the method: as §1

[6] = system: HTT mRNA; experiment: Splicing RT-qPCR assay, canonical (CJ) and alternative (AJ) junction mRNA, K562 cells; conditions: Homo sapiens, K562.3 cells, 24 hours; for AC50: read-out: HTT AJ (AC50, increase in AJ mRNA); for IC50: read-out: HTT CJ (IC50, decrease in CJ mRNA)
Procedure: (§2) Compounds described herein were used to modulate RNA transcript abundance in cells. The expression of a target mRNA was measured by detecting the formation of an exon-exon junction in the canonical transcript (CJ). A compound mediated exon-inclusion event was detected by observing an increase in formation of a new junction with an alternative exon (AJ). Real-time qPCR assays were used to detect these splicing switches and interrogate the potency of various compounds towards different target genes. A high-throughput real time quantitative PCR (RT-qPCR) assay was developed to measure these two isoforms of the mRNA (CJ and AJ) for exemplary genes, such as HTT, SMN2, and MYB, together with a control housekeeping gene, GAPDH or GUSB or PPIA, used for normalization. Briefly, the A673 or K562 cell line was treated with various compounds described herein (e.g., compounds of Formula (I)). After treatment, the levels of the HTT, MYB, or SMN2 mRNA targets were determined from each sample of cell lysate by cDNA synthesis followed by qPCR.
(§3) • Cells-to-CT 1-step kit: ThermoFisher A25602, Cells-to-CT lysis reagent: ThermoFisher 4391851C, TaqMan™ Fast Virus 1-Step Master Mix: ThermoFisher 4444436 • GAPDH: VIC-PL, ThermoFisher 4326317E (Assay: Hs99999905_m1)—used for K562/suspension cell lines • GUSB: VIC-PL, ThermoFisher 4326320E (Assay: Hs99999908_m1)—used for K562/suspension cell lines • PPIA: VIC-PL, ThermoFisher 4326316E (Assay: Hs99999904_m1)—used for A673/adherent cell lines
(§4) The K562 cell line was cultured in IMDM with 10% FBS. For K562, cells were diluted with full growth media and plated in either a 96-well plate (50,000 cells in 50 uL media per well) or a 384-well plate (8,000-40,000 cells in 45 uL media per well). An 11-point 3-fold serial dilution of the compounds were made in DMSO then diluted in media in an intermediate plate. Compound was transferred from the intermediate plate to the cell plate with the top dose at a final concentration of 10 uM in the well. Final DMSO concentration was kept at or below 0.25%. Final volume was 100 uL for 96-well plate and 50 uL for 384-well plate. The cell plate was then placed in an incubator at 37° C. with 5% CO2 for 24 hours.
(§5) The cells were then gently washed with 50 uL-100 uL cold PBS before proceeding to addition of lysis buffer. 30 uL-50 uL of room temperature lysis buffer with DNAse I (and optionally RNAsin) was added to each well. Cells were shaken/mixed thoroughly at room temperature for 5-10 minutes for lysis to take place and then 3 uL-5 uL of room temperature stop solution was added and wells were shaken/mixed again. After 2-5 minutes, the cell lysate plate was transferred to ice for RT-qPCR reaction setup. The lysates could also be frozen at −80° C. for later use.
(§6) In some cases, a direct lysis buffer was used. An appropriate volume of 3× lysis buffer (10 mM Tris, 150 mM NaCl, 1.5%-2.5% Igepal and 0.1-1 U/uL RNAsin, pH 7.4) was directly added to either K562 or A673 cells in media and mixed by pipetting 3 times. The plates were then incubated at room temperature with shaking/rocking for 20-50 minutes to allow for lysis to take place. After this time, the cell lysate plate was transferred to ice to set up for the RT-qPCR reactions. The lysates could also be frozen at −80° C. for later use.
(§7) To set up 10 uL RT-qPCR reactions, cell lysates were transferred to 384-well qPCR plates containing the master mix according to the table below. The plates were sealed, gently vortexed, and spun down before the run. The volumes were adjusted accordingly in some instances where the reaction was carried in 20 uL. The table below summarizes the components of the RT-qPCR reactions:
(§8) The RT-qPCR reaction was performed using a QuantStudio (ThermoFisher) under the following fast cycling conditions. All samples and standards were analyzed at least in duplicate. In some instances, bulk room temperature (RT) step of 5-10 minutes was completed for all plates before proceeding with qPCR. […]

[7] = system: MYB mRNA; experiment: as above; conditions: Homo sapiens, K562.3 cells, 24 hours; for AC50: read-out: MYB AJ (AC50, increase in AJ mRNA); for IC50: read-out: MYB CJ (IC50, decrease in CJ mRNA)
Procedure: as §2, §3, §4, §5, §6, §7, §8

Row | GI50 [1] | IC50 [2] | IC50 [3] | IC50 [4] | IC50 [5] | IC50 [6] | IC50 [7] | Compound | AC50 [2] | AC50 [6] | AC50 [7]
1 | 1000 to 10000 nM | 100 to 1000 nM | 100 to 1000 nM | 100 to 1000 nM | < 100 nM | 100 to 1000 nM | 100 to 1000 nM | Cc1cn2cc(NC(=O)c3ccc(N4CCNCC4)c4nonc34)cc(F)c2n1 [Compound 263, N-(8-fluoro-2-methyl-imidazo[1,2-a]pyridin-6-yl)-4-piperazin-1-yl-2,1,3-benzoxadiazole-7-carboxamide] | 100 to 1000 nM | 1000 to 10000 nM | 100 to 1000 nM
2 | > 10000 nM | > 10000 nM | > 10000 nM | > 10000 nM | 1000 to 10000 nM | > 10000 nM | > 10000 nM | CCN[C@H]1CCN(c2cc(OC)c(C(=O)Nc3cc(F)c4nc(C)cn4c3)c3nn(C)cc23)C1 [Compound 146] | > 10000 nM | > 10000 nM | > 10000 nM
3 | 1000 to 10000 nM | 100 to 1000 nM | 1000 to 10000 nM | 100 to 1000 nM | < 100 nM | 1000 to 10000 nM | 100 to 1000 nM | CN[C@@H]1CCN(c2ccc(C(=O)Nc3cc(F)c4nn(C)cc4c3)c3nn(C)cc23)C1 [Compound 140, N-(7-fluoro-2-methyl-indazol-5-yl)-2-methyl-4-[(3R)-3-(methylamino)pyrrolidin-1-yl]indazole-7-carboxamide] | 100 to 1000 nM | 1000 to 10000 nM | 100 to 1000 nM
4 | 1000 to 10000 nM | > 10000 nM | > 10000 nM | 1000 to 10000 nM | 1000 to 10000 nM | > 10000 nM | 1000 to 10000 nM | COc1c(NC(=O)c2ccc(N3CCNCC3)c3cc[nH]c23)cn2cc(C)nc2c1F [Compound 212, N-(8-fluoro-7-methoxy-2-methyl-imidazo-[1,2-a]pyridin-6-yl)-4-piperazin-1-yl-1H-indole-7-carboxamide] | > 10000 nM | > 10000 nM | > 10000 nM
5 | 100 to 1000 nM | 100 to 1000 nM | 100 to 1000 nM | 100 to 1000 nM | < 100 nM | 100 to 1000 nM | 100 to 1000 nM | CNC12CC(C1)N(c1ccc(C(=O)Nc3cc(F)c4nc(C)cn4c3)c3nn(C)cc13)C2 [Compound 135, N-(8-fluoro-2-methyl-imidazo[1,2-a]pyridin-6-yl)-2-methyl-4-[4-(methylamino)-2-azabicyclo[2.1.1]hexan-2-yl]-indazole-7-carboxamide] | < 100 nM | 1000 to 10000 nM | 100 to 1000 nM
6 | 1000 to 10000 nM | > 10000 nM | > 10000 nM | > 10000 nM | 100 to 1000 nM | > 10000 nM | > 10000 nM | CN[C@H]1CCN(c2c(OC)cc(C(=O)Nc3cc(F)c4nc(C)cn4c3)c3nn(C)cc23)C1 [Compound 137, N-(8-fluoro-2-methyl-imidazo[1,2-a]pyridin-6-yl)-5-methoxy-2-methyl-4-[(3S)-3-(methylamino)pyrrolidin-1-yl]indazole-7-carboxamide] | > 10000 nM | > 10000 nM | > 10000 nM
7 | 100 to 1000 nM | 100 to 1000 nM | 1000 to 10000 nM | 100 to 1000 nM | < 100 nM | 1000 to 10000 nM | 100 to 1000 nM | CCNC12CC(C1)N(c1ccc(C(=O)Nc3cc(F)c4nc(C)cn4c3)c3nn(C)cc13)C2 [Compound 136, 4-[4-(ethylamino)-2-azabicyclo-[2.1.1]hexan-2-yl]N-(8-fluoro-2-methylimidazo[1,2-a]pyridin-6-yl)-2-methyl-indazole-7-carboxamide] | 100 to 1000 nM | 1000 to 10000 nM | 100 to 1000 nM
8 | 100 to 1000 nM | < 100 nM | 1000 to 10000 nM | < 100 nM | < 100 nM | 1000 to 10000 nM | < 100 nM | Cc1cn2cc(NC(=O)c3ccc(N4CC[C@@H](NCC5COC5)C4)c4cn(C)nc34)cc(F)c2n1 [Compound 104, N-(8-fluoro-2-methylimidazo[1,2-a]pyridin-6-yl)-2-methyl-4-[(3R)-3-[(oxetan-3-ylmethyl)amino]pyrrolidin-1-yl]indazole-7-carboxamide] | < 100 nM | 1000 to 10000 nM | < 100 nM
9 | 1000 to 10000 nM | 1000 to 10000 nM | 1000 to 10000 nM | > 10000 nM | > 10000 nM | 1000 to 10000 nM | > 10000 nM | Cc1cn2cc(NC(=O)c3ccc(N4CCNCC4)c4cc[nH]c34)cc(F)c2n1 [Compound 213, N-(8-fluoro-2-methyl-imidazo[1,2-a]-pyridin-6-yl)-4-piperazin-1-yl-1H-indole-7-carboxamide] | > 10000 nM | > 10000 nM | > 10000 nM
10 | < 100 nM | < 100 nM | 1000 to 10000 nM | < 100 nM | < 100 nM | 1000 to 10000 nM | < 100 nM | CCNC1CCN(c2cc(F)c(C(=O)Nc3cn4cc(C)nc4c(F)c3OC)c3[nH]ncc23)CC1 [Compound 173, 4-[4-(ethylamino)-1-piperidyl]-6-fluoro-N-(8-fluoro-7-methoxy-2-methyl-imidazo[1,2-a]pyridin-6-yl)-1H-indazole-7-carboxamide] | < 100 nM | 1000 to 10000 nM | < 100 nM
11 | 1000 to 10000 nM |  | 1000 to 10000 nM | 100 to 1000 nM | < 100 nM | 1000 to 10000 nM | 100 to 1000 nM | Cc1cn2cc(NC(=O)c3ccc(N4CCC5NCCCC54)c4cn(C)nc34)cc(F)c2n1 (stereo not drawn) [Compound 100, N-(8-fluoro-2-methylimidazo[1,2-a]pyridin-6-yl)-2-methyl-4-(octahydropyrrolo[3,2-b]pyridin-1-yl)indazole-7-carboxamide] |  | 1000 to 10000 nM | 100 to 1000 nM
